In assay [1] the test system is epidermoid carcinoma of the nasopharynx (KB). As to the kind of experiment: In vitro cytotoxicity, KB. The note with it: Homo sapiens, 96 h, read-out: ED50 KB.
For assay [2], the system named is human ovarian cancer (1A9). The assay can be described thus: In vitro cytotoxicity, 1A9. The note with it: 96 h, read-out: ED50 1A9.
The subject of another assay is bone (HOS). The assay can be described thus: In vitro cytotoxicity, HOS. The note with it: Homo sapiens; for IC50: 96 h, read-out: ED50 HOS.
The next assay relates to prostate cancer (PC3). The assay can be described thus: In vitro cytotoxicity, PC3. The note with it: Homo sapiens; for IC50: 96 h, read-out: ED50 PC3.
For assay [3], the system named is ileocecal carcinoma (HCT-8). As to the kind of experiment: In vitro cytotoxicity, HCT-8. The note with it: Homo sapiens, HCT-8, 96 h, read-out: ED50 HCT-8.
In another assay the test system is lung carcinoma (A-549). The assay can be described thus: In vitro cytotoxicity, A-549. To be noted: Homo sapiens, A549, 96 h, read-out: ED50 A-549.
A further assay deals with breast cancer (MCF-7). As to the kind of experiment: In vitro cytotoxicity, MCF-7. The note with it: Homo sapiens; for IC50: MCF7, 96 h, read-out: ED50 MCF-7.
Assay [4] relates to P-gp-expressing epidermoid carcinoma of the nasopharynx (KB-VIN). As to the kind of experiment: In vitro cytotoxicity, KB-VIN. The note with it: Homo sapiens, KBVIN, 96 h, read-out: ED50 KB-VIN.
In another assay the test system is glioblastoma (U-87-MG). The assay can be described thus: In vitro cytotoxicity, U-87-MG. To be noted: Homo sapiens; for IC50: 96 h, read-out: ED50 U-87-MG; for inhibition at 20 µg/mL: read-out: Inhibition at highest test concentration (in brackets), U-87-MG.
The next assay concerns melanoma (SKMEL-2). As to the kind of experiment: In vitro cytotoxicity, SKMEL-2. The note with it: for IC50: SK-MEL-2, 96 h, read-out: ED50 SKMEL-2.
In a further assay the test system is bovine brain tubulin. As to the kind of experiment: Tubulin polymerization assay (antimicrotubule assay). The note with it: read-out: ITP (inhibition of tubulin polymerization) IC50; tubulin […] (12 μM), 26° C., 20 min.
Assay [5] deals with ten human tumor cell lines. The assay can be described thus: In vitro cytotoxicity, statements on the panel of tumor cell lines.

The structures appear in SMILES notation. ≈ marks a conversion by molar mass, not a printed value.

Two molecules from patent US6479499B1 can be followed below.

Regarding `COc1cccc(C2NC(=O)c3ccccc3N2)c1` (racemic) [Compound 61, 2,3-Dihydro-2-(3′-methoxyphenyl)-4-quinazolinone], the IC50 is 3 µg/mL (≈ 11.8 µM) in [1]; 1 µg/mL (≈ 3.93 µM) in assay [2]; more than 20 µg/mL in the assay with bone (HOS); more than 20 µg/mL with prostate cancer (PC3); 1.5 µg/mL (≈ 5.9 µM) in [3]; 3 µg/mL (≈ 11.8 µM) with lung carcinoma (A-549). For the same molecule, the IC50 with breast cancer (MCF-7) is more than 20 µg/mL; in assay [4], 1.2 µg/mL (≈ 4.72 µM); in the assay with glioblastoma (U-87-MG) it was more than 20 µg/mL; in the assay on melanoma (SKMEL-2) (Homo sapiens), more than 20 µg/mL; in the assay with bovine brain tubulin it was 5.6 ± 1 µM. In addition, the inhibition at 20 µg/mL was found to be 42% in the assay on bone (HOS) (read-out: Inhibition at highest test concentration (in brackets), HOS); 43% in the assay with prostate cancer (PC3) (read-out: Inhibition at highest test concentration (in brackets), PC3); 48% in the assay with breast cancer (MCF-7) (MCF7, read-out: Inhibition at highest test concentration (in brackets), MCF-7); 35% with glioblastoma (U-87-MG); 49% in the assay with melanoma (SKMEL-2) (Homo sapiens, SK-MEL-2, read-out: Inhibition at highest test concentration (in brackets), SKMEL-2). The “Times more active than 2′-methoxy (60)” value in assay [5] (more sensitive cell lines) is on record as “about 15 times”. The “Times more active than 4′-methoxy (62)” value in assay [5] (more sensitive cell lines) is on record as approximately 20 times.

On to `COc1cccc(C2NC(=O)c3cc(Cl)ccc3N2)c1` (racemic) [Compound 68, 2,3-Dihydro-2-(3′-methoxyphenyl)-6-chloro-4-quinazolinone], for which the IC50 is 0.95 µg/mL (≈ 3.29 µM) in assay [1]; 0.27 µg/mL (≈ 0.935 µM) in assay [2]; 20 µg/mL (≈ 69.3 µM) in the assay on bone (HOS); 2.5 µg/mL (≈ 8.66 µM) in the assay on prostate cancer (PC3); 0.48 µg/mL (≈ 1.66 µM) in assay [3]; 0.6 µg/mL (≈ 2.08 µM) in the assay with lung carcinoma (A-549). The IC50 is 16 µg/mL (≈ 55.4 µM) with breast cancer (MCF-7); 0.42 µg/mL (≈ 1.45 µM) in assay [4]; more than 20 µg/mL with glioblastoma (U-87-MG); less than 2.5 µg/mL in the assay on melanoma (SKMEL-2) (Homo sapiens); 1.5 ± 0.01 µM with bovine brain tubulin. Besides, the inhibition at 20 µg/mL in the assay with glioblastoma (U-87-MG) stood at 37%. The “Inhibition value of plateau-dose response (in brackets), SKMEL-2” value in the assay with melanoma (SKMEL-2) (plateau-dose response, inhibition plateaus over broad dose range) was 56%. Further, the “ED50, times less than that of 61” value in assay [5] is on record as “about 5 times”.
